Results on 47 molecules are retold here after article PMC3265452 (PLoS Neglected Tropical Diseases, 2012).

Counter-ions that a name gives are not always drawn.

One experiment deals with AaDOP2 (Aedes aegypti, UniProt H6D5H2). The experiment in a line: AaDOP2 antagonist screen of the LOPAC1280 library (HEK-CRELuc-Aadop2 cells, luminescence). The format is cell-based.
Sequence of AaDOP2 (H6D5H2 1-476): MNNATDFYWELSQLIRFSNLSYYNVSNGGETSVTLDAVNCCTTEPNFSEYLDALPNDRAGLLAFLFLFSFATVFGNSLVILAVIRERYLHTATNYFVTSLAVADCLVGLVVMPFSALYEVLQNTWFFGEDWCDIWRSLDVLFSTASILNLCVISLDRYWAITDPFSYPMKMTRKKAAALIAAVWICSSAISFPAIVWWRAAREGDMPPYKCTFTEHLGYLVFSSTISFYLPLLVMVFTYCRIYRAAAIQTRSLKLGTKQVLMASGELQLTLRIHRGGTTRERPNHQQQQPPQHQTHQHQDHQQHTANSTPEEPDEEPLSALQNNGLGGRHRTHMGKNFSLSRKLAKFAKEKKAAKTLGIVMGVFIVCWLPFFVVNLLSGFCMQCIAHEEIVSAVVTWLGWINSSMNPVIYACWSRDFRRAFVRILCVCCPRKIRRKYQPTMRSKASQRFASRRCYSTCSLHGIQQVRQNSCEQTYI
Details: not given
Regarding `O=S1(=O)N(CCN2CC=C(c3c[nH]c4cc(F)ccc34)CC2)c2cccc3c2N1CCC3` [Compound 697, LY-367,265], the “Compound effect (percent receptor signaling in presence of test compound, relative lux units relative to the SCH23390 control)” value was determined as 29. As for `Cc1ccccc1N1CCN(S(=O)(=O)C[C@]23CC[C@H](C[C@@H]2NC(=O)[C@@H](N)CCS(C)(=O)=O)C3(C)C)CC1` [Compound 699, L-368,899], the “Compound effect (percent receptor signaling in presence of test compound, relative lux units relative to the SCH23390 control)” value was found to be 94. Consider `CCn1cc(C(=O)O)c(=O)c2cc(F)c(N3CCNC(C)C3)c(F)c21` (centres unmarked) [Compound 700, Lomefloxacin hydrochloride], for which the “Compound effect (percent receptor signaling in presence of test compound, relative lux units relative to the SCH23390 control)” value was found to be 90. With `Nc1nnc(-c2cccc(Cl)c2Cl)c(N)n1` [Compound 701, Lamotrigine], the “Compound effect (percent receptor signaling in presence of test compound, relative lux units relative to the SCH23390 control)” value is recorded as 87. On the same count and under the same terms, in the case of `CN1[C@@H](CC(=O)c2ccccc2)CCC[C@H]1C[C@H](O)c1ccccc1.Cl` [Compound 702, alpha-Lobeline hydrochloride] it was 89. As for `CN(C)C(=O)C(CCN1CCC(O)(c2ccc(Cl)cc2)CC1)(c1ccccc1)c1ccccc1` [Compound 703, Loperamide hydrochloride], the “Compound effect (percent receptor signaling in presence of test compound, relative lux units relative to the SCH23390 control)” value was found to be 83. With `O=C(O)c1nn(Cc2ccc(Cl)cc2Cl)c2ccccc12` [Compound 704, Lonidamine], the “Compound effect (percent receptor signaling in presence of test compound, relative lux units relative to the SCH23390 control)” value came out at 90. On to `Cc1oncc1C(=O)Nc1ccc(C(F)(F)F)cc1` [Compound 705, Leflunomide], for which the “Compound effect (percent receptor signaling in presence of test compound, relative lux units relative to the SCH23390 control)” value is 97.

Take `CN1CCc2ccccc2Cc2[nH]c3ccccc3c2CC1` [Compound 710, LE 300]: the “% of the SCH23390 effect (percent inhibition of receptor response relative to the SCH23390 control)” value was determined as 99% and the “Compound effect (percent receptor signaling in presence of test compound, relative lux units relative to the SCH23390 control)” value was 1.

On to `Cc1c(OCC(F)(F)F)ccnc1C[S+]([O-])c1nc2ccccc2[nH]1` (centres unmarked) [Compound 711, Lansoprazole], for which the “Compound effect (percent receptor signaling in presence of test compound, relative lux units relative to the SCH23390 control)” value is listed as 91.

In the case of `Cl.c1ccc(CN2CCC3(CCCc4ccccc43)CC2)cc1` [Compound 712, L-687,384 hydrochloride], the “Compound effect (percent receptor signaling in presence of test compound, relative lux units relative to the SCH23390 control)” value is 87. On to `C/C(O)=C(\C#N)C(=O)Nc1cc(Br)ccc1Br` [Compound 713, LFM-A13], for which the “Compound effect (percent receptor signaling in presence of test compound, relative lux units relative to the SCH23390 control)” value was found to be 98. `O=c1cc(-c2ccc(O)c(O)c2)oc2cc(O)cc(O)c12` [Compound 714, Luteolin]: the “Compound effect (percent receptor signaling in presence of test compound, relative lux units relative to the SCH23390 control)” value is listed as 87. As to `Cc1c(CC(C)(C)C(=O)O)n(Cc2ccc(Cl)cc2)c2ccc(F)cc12` [Compound 715, L-655,240], the “Compound effect (percent receptor signaling in presence of test compound, relative lux units relative to the SCH23390 control)” value is recorded as 73.

Consider `CCOC(=O)N1CCC(=C2c3ccc(Cl)cc3CCc3cccnc32)CC1` [Compound 716, Loratadine], for which the “Compound effect (percent receptor signaling in presence of test compound, relative lux units relative to the SCH23390 control)” value is on record as 88. For `Cl.c1ccc([C@H]2CN3CCSC3=N2)cc1` [Compound 717, (-)-Tetramisole hydrochloride], the “Compound effect (percent receptor signaling in presence of test compound, relative lux units relative to the SCH23390 control)” value is recorded as 90. Take `CCOC(=O)c1ncn2c1[C@@H]1CCCN1C(=O)c1cc(OC)ccc1-2` [Compound 718, L-655,708]: the “Compound effect (percent receptor signaling in presence of test compound, relative lux units relative to the SCH23390 control)” value was found to be 90.

`Cl.O=c1cc(N2CCOCC2)oc2c(-c3ccccc3)cccc12` [Compound 719, LY-294,002 hydrochloride]: the “Compound effect (percent receptor signaling in presence of test compound, relative lux units relative to the SCH23390 control)” value came out at 53. On to `CN1CCN(C2=Nc3ccccc3Oc3ccc(Cl)cc32)CC1` [Compound 720, Loxapine succinate], for which the “Compound effect (percent receptor signaling in presence of test compound, relative lux units relative to the SCH23390 control)” value came out at 3. As to `CCCCCN(CCCCC)C(=O)C(CCC(=O)O)NC(=O)c1ccc(Cl)c(Cl)c1` (centres unmarked) [Compound 722, Lorglumide sodium], the “Compound effect (percent receptor signaling in presence of test compound, relative lux units relative to the SCH23390 control)” value came to 122. As to `Ic1ccccc1CNC1C2CCN(CC2)C1C(c1ccccc1)c1ccccc1.O=C(O)C(=O)O` [Compound 725, L-703,606 oxalate], the “Compound effect (percent receptor signaling in presence of test compound, relative lux units relative to the SCH23390 control)” value turned out to be 98. For the molecule `C=CCN1CC[C@]23CCCC[C@H]2[C@H]1Cc1ccc(O)cc13` [Compound 726, Levallorphan tartrate], the “Compound effect (percent receptor signaling in presence of test compound, relative lux units relative to the SCH23390 control)” value is given as 93. As for `Cl.Clc1ccc(N2CCN(Cc3c[nH]c4ncccc34)CC2)cc1` [Compound 728, L-745,870 hydrochloride], the “Compound effect (percent receptor signaling in presence of test compound, relative lux units relative to the SCH23390 control)” value came out at 111. `O=C1N(c2ccccc2)c2ccccc2C1(Cc1ccncc1)Cc1ccncc1` [Compound 730, Linopirdine]: the “Compound effect (percent receptor signaling in presence of test compound, relative lux units relative to the SCH23390 control)” value was found to be 106.

Turning to `OC1(c2ccc(Cl)cc2)CCN(Cc2c[nH]c3ccccc23)CC1` [Compound 731, L-741,626], the “Compound effect (percent receptor signaling in presence of test compound, relative lux units relative to the SCH23390 control)” value is recorded as 104.

For `COc1cc(CNC(=O)CCCCCCC(C)C)ccc1O` [Compound 735, Dihydrocapsaicin], the “Compound effect (percent receptor signaling in presence of test compound, relative lux units relative to the SCH23390 control)” value is 102. As to `Cc1cn[nH]c1.Cl` [Compound 737, 4-Methylpyrazole hydrochloride], the “Compound effect (percent receptor signaling in presence of test compound, relative lux units relative to the SCH23390 control)” value stood at 111. For `COC(=O)Nc1nc2ccc(C(=O)c3cccs3)cc2[nH]1` [Compound 738, Nocodazole], the “Compound effect (percent receptor signaling in presence of test compound, relative lux units relative to the SCH23390 control)” value is reported as 89. As for `CNCCc1c[nH]c2ccc(O)cc12.O=C(O)C(=O)O` [Compound 739, N-omega-Methyl-5-hydroxytryptamine oxalate salt], the “Compound effect (percent receptor signaling in presence of test compound, relative lux units relative to the SCH23390 control)” value came out at 115. Still for that read-out and setting: the figure for `C#CCN1C(C)=C(C(=O)OC)C(c2cccc([N+](=O)[O-])c2)C(C(=O)OCC)=C1C` (centres unmarked) [Compound 741, MRS 1845] is 101. For the molecule `CCCOC(=O)c1c(-c2ccccc2)nc(CC)c(C(=O)SCC)c1CCC` [Compound 743, MRS 1523], the “Compound effect (percent receptor signaling in presence of test compound, relative lux units relative to the SCH23390 control)” value came out at 101. Regarding `N[C@@H](Cc1ccc(N(CCCl)CCCl)cc1)C(=O)O` [Compound 744, Melphalan], the “Compound effect (percent receptor signaling in presence of test compound, relative lux units relative to the SCH23390 control)” value stood at 102. On to `COc1ccc2[nH]cc(CCN(C)C)c2c1.O=C(O)C(=O)O` [Compound 745, 5-Methoxy DMT oxalate], for which the “Compound effect (percent receptor signaling in presence of test compound, relative lux units relative to the SCH23390 control)” value is recorded as 104. On to `CC[C@H](C)C(=O)O[C@H]1CCC=C2C=C[C@H](C)[C@H](CC[C@@H]3C[C@@H](O)CC(=O)O3)[C@H]21` [Compound 748, Mevastatin], for which the “Compound effect (percent receptor signaling in presence of test compound, relative lux units relative to the SCH23390 control)” value came out at 106.

`COCc1nc2c([nH]1)c(=O)n(C)c(=O)n2CC(C)C` [Compound 749, 8-Methoxymethyl-3-isobutyl-1-methylxanthine]: the “Compound effect (percent receptor signaling in presence of test compound, relative lux units relative to the SCH23390 control)” value is recorded as 107.

With `CC(C)c1ccc2c(c1)c(SC(C)(C)C)c(CC(C)(C)C(=O)O)n2Cc1ccc(Cl)cc1` [Compound 750, MK-886], the “Compound effect (percent receptor signaling in presence of test compound, relative lux units relative to the SCH23390 control)” value is recorded as 65.

Staying with this experiment, now noted: 10 µM compound, 300 nM dopamine, 2 hr.
With `CC1(C)C(=O)N(CCN2CCC(C(=O)c3ccc(F)cc3)CC2)c2ccccc21.Cl` [Compound 698, LY-310,762 hydrochloride], the “% of the SCH23390 effect (percent inhibition of receptor response relative to the SCH23390 control)” value is 81%.

Staying with this experiment, now noted: 10 µM compound, 300 nM dopamine, 2 hr; hit = compound effect <20.
`CC1(C)C(=O)N(CCN2CCC(C(=O)c3ccc(F)cc3)CC2)c2ccccc21.Cl` [Compound 698, LY-310,762 hydrochloride]: the “Compound effect (percent receptor signaling in presence of test compound, relative lux units relative to the SCH23390 control)” value turned out to be 19%.

As for `CC(O)C(C)OC(=O)[C@@H]1C[C@@H]2c3cccc4c3c(cn4C(C)C)C[C@H]2N(C)C1.O=C(O)/C=C\C(=O)O` (some centres unmarked) [Compound 721, LY-53,857 maleate], the “Compound effect (percent receptor signaling in presence of test compound, relative lux units relative to the SCH23390 control)” value was 73%.

As for `CN1C2CCC1CC(NC(=O)c1nn(C)c3ccccc13)C2.O=C(O)/C=C\C(=O)O` (centres unmarked) [Compound 723, LY-278,584 maleate], the “Compound effect (percent receptor signaling in presence of test compound, relative lux units relative to the SCH23390 control)” value is reported as 92%. Take `Cl.Cl.Cl.Ic1ccc(N2CCN(Cc3c[nH]c4ncccc34)CC2)cc1` [Compound 729, L-750,667 trihydrochloride]: the “Compound effect (percent receptor signaling in presence of test compound, relative lux units relative to the SCH23390 control)” value came to 107%. For `Cl.FC(F)(F)c1cc(CO[C@H]2CCCN[C@H]2c2ccccc2)cc(C(F)(F)F)c1` [Compound 732, L-733,060 hydrochloride], the “Compound effect (percent receptor signaling in presence of test compound, relative lux units relative to the SCH23390 control)” value turned out to be 94%. `CCN(CC)CCNC(=O)c1cc(Cl)c(N)cc1OC.Cl` [Compound 733, Metoclopramide hydrochloride]: the “Compound effect (percent receptor signaling in presence of test compound, relative lux units relative to the SCH23390 control)” value is recorded as 101%.

In the case of `COc1ccc2cc([C@H](C)C(=O)[O-])ccc2c1.[Na+]` [Compound 736, (-)-Naproxen sodium], the “Compound effect (percent receptor signaling in presence of test compound, relative lux units relative to the SCH23390 control)” value worked out at 105%. For `COc1nc(C)nc(Cl)c1NC1=NCCN1.Cl` [Compound 740, Moxonidine hydrochloride], the “Compound effect (percent receptor signaling in presence of test compound, relative lux units relative to the SCH23390 control)” value came to 94%.

As for `CN1C[C@H](O)[C@@H](O)[C@H](O)[C@H]1CO` [Compound 742, N-Methyl-1-deoxynojirimycin], the “Compound effect (percent receptor signaling in presence of test compound, relative lux units relative to the SCH23390 control)” value turned out to be 101%.

On to `CC(C)NCC(O)c1cc(O)cc(O)c1.CC(C)NCC(O)c1cc(O)cc(O)c1.O=S(=O)(O)O` (centres unmarked) [Compound 746, Metaproterenol hemisulfate], for which the “Compound effect (percent receptor signaling in presence of test compound, relative lux units relative to the SCH23390 control)” value is 111%. As to `Cc1cccc(C)c1OCC(C)N.Cl` (centres unmarked) [Compound 751, Mexiletene hydrochloride], the “Compound effect (percent receptor signaling in presence of test compound, relative lux units relative to the SCH23390 control)” value is given as 105%.

Staying with this experiment, now noted: read-out: % of the SCH23390 effect (percent inhibition of receptor response relative to the SCH23390 control).
Regarding `CN1CCN(C2=Nc3ccccc3Oc3ccc(Cl)cc32)CC1` [Compound 720, Loxapine succinate], the inhibition at 10 µM is 97%.
